From patent US20220389001A1, “ATF6 MODULATORS AND USES THEREOF” (Praxis Biotech LLC, priority 2019, published 2022) come the findings set out here.

In test [1] the test system is ATF6. Kind of test: ERSE ATF6-luciferase assay in presence of Tg-induced ER stress (U2-OS ATF6 TRE-luciferase reporter cells). It counts as cell-based, Human. To be noted: Homo sapiens, U2OS, 8 h, Tg only = 100%. On the procedure:
(§1) To understand how exemplary compounds of the invention modulate the activity of ATF6 in absence or presence of endoplasmic reticulum (ER) stress, a Human bone osteosarcoma (U2-OS)-based TRE-luciferase reporter stable cell line was generated to determine the modulation of transcription of ATF6 target genes.
(§2) U2-OS cells were obtained from the American Type Culture Collection (ATCC HTB-96, ATCC Manassas, Va.) and were cultured with growing medium containing Dulbecco's Modified Eagle's Medium (DMEM) (Cat. No.: SH30023.02, HyClone) supplemented with fetal bovine serum (FBS) 10% (Cat. No.: 16000044, Gibco) and 1% penicillin-streptomycin antibiotic cocktail (Cat. No.: SV30010, Hyclone).
(§3) Cignal Lenti ATF6 luc reporter (Qiagen #CLS-6031L) was used to produce a stable cell line in U2-OS cells (U2-OS ATF6 TRE-luciferase reporter). The lenti ATF6 reporter is a preparation of replication incompetent, VSV-g pseudotyped lentivirus particles expressing the firefly luciferase gene under the control of a minimal (m)CMV promoter and tandem repeats of the ATF6 transcriptional response element (TRE). The number of response elements as well as the intervening sequence between response elements has been experimentally optimized to maximize the signal to noise ratio.
(§4) Exemplary compounds of the invention and reference compounds were prepared from powder as 10 mM stock solutions in dimethyl sulfoxide (DMSO; Cat. No. #D2650, Sigma Aldrich) and stored at −80° C. in presence of N2 neutral atmosphere.
(§5) For the primary screening, 40,000 U2-OS ATF6 TRE-luciferase reporter cells were plated in poly-D-lysine (Cat. No.: P2636, Sigma) pre-coated white 96-well plates (Thermo Scientific Nunc #136101) with 100 μL of growing medium. Cells were incubated in humidified chambers for 24 hr.
For testing exemplary compounds in presence of ER-stress, cells were pre-treated for 30 min with 50 μL growing medium containing either vehicle (DMSO), 1 or 10 μM test compound. After this pre-incubation, 50 μL of a solution containing 0.2 μM of the ER stress-inducer thapsigargin (Tg) was added to the appropriate wells. The Tg solution also contains vehicle or test compounds at 1 or 10 μM as indicated. The final concentration of DMSO in each well was kept at 0.3%. Plates were incubated for 8 hr in humidified chambers.
After the 8 hr incubation, plates were cooled down to room temperature for 10 min prior to the luciferase assays. Luciferase reactions were performed using Luciferase Assay System (Cat. No.: E4550, Promega). Briefly, each well was washed with 100 μl of PBS 1× and, then, 20 μl of lysis reagent was added into each well. Plates were shaken for 10 min and, then, 50 μl of Luciferase Assay Reagent was added to each well. Luminescence was determined by integration of 1 s with a gain of 110 in a Synergy 4 Microplate reader. All measurements were carried out in triplicate.
The average activity determined from the wells containing vehicle only (DMSO, 0% of ATF6 activity) was used as blank and subtracted from the rest of measurements. The average activity determined from the wells containing Tg only was used as 100% of ATF6 activity. The percentage of modulation of exemplary compounds was calculated by normalizing values to potential maximal activation with Tg.
ATF6 activities of exemplary compounds at 1 and 10 μM in presence Tg-induced ER stress tested in the U2-OS ATF6 TRE-luciferase reporter cells were determined and are shown in Table 2.
A general note: A reporter such as luciferase makes a cellular process visible.

The subject of test [2] is ATF6. Kind of test: ERSE ATF6-luciferase assay in absence of ER stress (U2-OS ATF6 TRE-luciferase reporter cells). In kind it is cell-based, Human. The following applies: 8 hr, normalized to maximal activation with Tg. The method, then: as §1, §2, §3, §4, §5
For testing exemplary compounds in absence of ER-stress, cells were treated for 8 hr with 100 μL growing medium containing either vehicle (DMSO), 1 or 10 μM test compound or 0.1 μM Tg. The final concentration of DMSO in each well was kept at 0.3%. Plates were incubated in humidified chambers.
After 8 hr of incubation, plates were cooled down to room temperature for 10 min prior to luciferase assays. Luciferase reactions were performed as above. Luminescence was read by integration of 1 s with a gain of 110 in a Synergy 4 Microplate reader. All measurements were carried out in triplicate.
The average activity determined from the wells containing vehicle only (DMSO, 0% of ATF6 activity) was used as blank and subtracted from the rest of measurements. The percentage of modulation of exemplary compound was calculated by normalizing values to potential maximal activation with Tg.
ATF6 activities of exemplary compounds at 1 and 10 μM in absence of Tg-induced ER stress in the U2-OS ATF6 TRE-luciferase reporter cells were determined and are shown in Table 3.

As for `Cc1c(NC(=O)c2cc(-c3ccco3)on2)cnn1C(C)c1c(Cl)cccc1Cl` (stereo not shown) [Compound 1-22, N-(1-(1-(2,6-dichlorophenyl)ethyl)-5-methyl-1H-pyrazol-4-yl)-5-(furan-2-yl)isoxazole-3-carboxamide], in test [1] (1 μM test compound), the activity at 1 µM was in the range of 75 to 100%. In test [1] (10 μM test compound), the activity at 10 µM fell in the range of 100 to 125%. Besides, in test [2] (1 μM test compound), the “ATF6 activity @ 1 μM- No Tg [%]” value was “+ (+ refers to 0% < % activity < 25% at 1 or 10 μM test compound)”. Moreover, in test [2] (10 μM test compound), the “ATF6 activity @ 10 μM- No Tg [%]” value is “+ (+ refers to 0% < % activity < 25% at 1 or 10 μM test compound)”.
